Melting point data for 89 compounds are collected here from a melting point compilation (Tetko et al.; mined from patent text by program, amines drawn as free bases though some values may be those of a salt).

The structures appear in SMILES notation. Where only a bound is given, the exact number is not on record here.

Consider `COc1cccc(CC(N)C(=O)O)c1OCCc1ccccc1` (racemic), for which the melting point (commonly the temperature of the solid-liquid transition) is 180 to 182 °C.
Turning to `CCOCc1c2c(n(Cc3ccccc3)c1-c1ccccc1)C(C)CN(Cc1ccccc1)C2` (centres undefined), the melting point fell in the range of 96 to 98 °C.
The compound `CCCn1c(CC)ccc1Cc1cccc(NC(N)=O)c1` gave a melting point of 59 to 61 °C.
With `CC(=O)NC(=Cc1ccc(OC(C)=O)cc1)C(=O)O`, the melting point lay in the range of 236 to 237 °C.
In the case of `Nc1c(Cl)cc(C(=O)NC2CCN(CCO)CC2)c2c1CCO2`, the melting point is 186 °C.
`CCOP(=O)(Cc1ccc(C(=O)O)cc1)OCC`: the melting point was 117 to 120 °C.
With `OCC1OC(n2cnc3c(NCC(c4ccccc4)c4ccc(F)cc4)nc(Cl)nc32)C(O)C1O` (centres undefined), the melting point lay within 120 to 123 °C.
`Cc1ccc(-c2[nH]nc(CO)c2-c2ccc(S(N)(=O)=O)cc2)cc1` yielded a melting point of 130 °C.
The figure for `COC(=O)c1ccc(CN2CCN(c3nc(C)cs3)C2=O)cc1` is 157 to 158 °C.
As to `CNC(=C[N+](=O)[O-])NCCSCc1nccs1`, the melting point was 103 to 104 °C.
With `O=C1NCCN1C1CCN(CCC2CS(=O)c3ccccc3O2)CC1` (centres undefined), the melting point came to 145 °C.
The figure for `Cn1c(C(=O)N2CCCC2)cc2cc(OCCNCC(O)COc3ccccc3)ccc21` (centres undefined) is 130 °C; for `CCNC(=O)C1CC2(NC(=O)NC2=O)c2cc(F)ccc2O1` (centres undefined) it is above 300 °C; for `COc1cc(COc2cc(CCc3ccccn3)n(-c3ccccc3)n2)ccc1OCc1nc(-c2ccco2)oc1C` it is 104 to 105 °C.
For `CSc1ncncc1C(c1ccccc1F)C(C)(C)C(=O)O` (centres undefined) the value was 204 to 205 °C; for `Cc1c(Cc2cccnc2)sc2ccc(C(=O)O)cc12`, 230 to 232 °C; for `COc1ccc(NC(=O)c2ccc(C(C)(C)CN)cc2)cc1`, 139 to 140 °C.
The figure for `COC(=O)/C=C/C=C(\c1ccccc1)c1ccc(OC)cc1` is 88 to 89.5 °C; for `Cc1ccc(-c2cc(C(O)/C=C/c3ccc(C(=O)O)cc3)cc3c2C(C)(C)CCC3(C)C)cc1` (centres undefined) it is 179 °C.
For the compound `Cc1cc(C(O)(C(F)(F)F)C(F)(F)F)cc(C)c1OCCN`, the melting point is 167 to 169 °C.
In the case of `CCOC(=O)C1=C(COCCNc2nccc(=O)[nH]2)NC(C)=C(C(=O)OC)C1c1ccccc1Cl` (centres undefined), the melting point fell in the range of 148 to 150 °C.
Regarding `COC(=O)CC[C@@H](Cc1ccc(OCc2ccccc2)cc1)NC(=O)CCCCCCc1ccccc1`, the melting point lay in the range of 94.8 to 95.9 °C.
For the compound `COc1cc(CN2CCN(C)CC2C2=NCCN2)cc(OC)c1OC` (centres undefined), the melting point was in the range of 185 to 187 °C.
For `CCOC(=O)c1cnn2c1c(Nc1ccccc1)nc1ccccc12`, the melting point lay within 145 to 147 °C.
As for `CC(C)C1=C(C#N)C(c2ccccc2Cl)c2c[nH]nc2N1` (centres undefined), the melting point was above 250 °C.
On to `Oc1cncc2sccc12`, for which the melting point was 206 °C.
In turn, `CCOc1nn(-c2cc(C(F)(F)F)ccn2)cc1CCCOc1ccc(CCC(=O)O)cc1OC` showed a melting point of 111 to 112 °C.
In the case of `COc1ccc(CC2CNC(=O)N2)cc1OCc1ccccc1` (centres undefined), the melting point was in the range of 154 to 157 °C.
The compound `CC(=O)Nc1ccc(-c2ccc(C(C)=O)o2)cc1` displayed a melting point of 214 to 215 °C.
As to `Cc1cc(C)c2c(c1C)OC(C)(C)C2c1ccc(N(C)C)cc1` (centres undefined), the melting point lay in the range of 124 to 125 °C.
`O=C1CSC(=S)N1N=c1sc2ccc([N+](=O)[O-])cc2s1` showed a melting point of 315 °C.
Turning to `CCN(CC)CCNc1cc(-c2c(-c3cccc(C)c3)nc3cccnn23)ccn1`, the melting point fell in the range of 97 to 98 °C.
`CCOC(=O)c1ncn2c1C(C)(C)Nc1ccccc1-2` displayed a melting point of 145 to 149 °C.
As for `Cc1ccc(-c2ccc(-c3ccccc3)cc2)n1CC[C@H]1C[C@H](O)CC(=O)O1` (relative stereo), the melting point lay within 104 to 107 °C.
For `COc1ccc(S(=O)(=O)NCCc2ccc(OCC(=O)O)cc2)cc1` the value was 82 to 83 °C.
`CS(=O)(=O)c1ccc(C(CC2CCOCC2)c2ccc(-c3nnc(CO)s3)[nH]2)cc1` (centres undefined) yielded a melting point of 199 to 201 °C.
The figure for `CCOC(=O)N1CCN(c2ccc(C3=NNC(=O)CC3C)cc2[N+](=O)[O-])CC1` (centres undefined) is 140 to 142 °C; for `CC(C)CC(=O)Nc1cccc(-c2ccnc3c(-c4ccc(Cl)c(Cl)c4)cnn23)c1` it is 215 to 217 °C; for `Cc1cc2cnn(-c3ccccc3)c2nc1OCc1ncnn1C` it is 145 to 146 °C.
In turn, `CC(C)(C)S(=O)(=O)C(=[N+]=[N-])S(=O)(=O)C(C)(C)C` came in with a melting point of 121 to 122 °C.
`N#Cc1c(Oc2ccc(Oc3ccc(N)cc3)cc2)cccc1Oc1ccc(Oc2ccc(N)cc2)cc1` came in with a melting point of 233 to 234 °C.
`Fc1ccc(Nc2ncnc3cnc(NCCN4CCNCC4)nc23)cc1Cl` returned a melting point of 173 to 175 °C.
As for `O=C(c1ccccc1O)c1ccccc1Br`, the melting point was 78 °C.
For the compound `C=C(c1ccccc1OC)c1ccccc1OC`, the melting point was in the range of 88 to 90 °C.
Compound `CC(=O)OC[C@@](O)(c1ccc(F)cc1F)[C@H](C)c1ccncn1` had a melting point of 102 to 104 °C.
`CCCCCCCCCCCCS(=O)(=O)c1c(O)cc(C)oc1=O`: the melting point was 78 to 79 °C.
`COc1ccc(-c2nc(-c3ccccc3)n(CCCCCCCC(=O)O)c2-c2ccc(OC)cc2)cc1` displayed a melting point of 149 to 150 °C.
`CNC(=NCCn1cc(Cn2ccnc2)c2ccccc21)NC#N`: the melting point was in the range of 172 to 173 °C.
For the compound `CC(C)n1nc(-c2c(OCc3ccccn3)nc(N)nc2-c2ccccc2)ccc1=O`, the melting point lay within 177 to 178 °C.
As for `O=C(c1ccccc1)c1nc(Br)c2n1CCC2C(=O)O` (centres undefined), the melting point fell in the range of 190 to 192 °C.
With `CC(C)(C)OC(=O)NC[C@H]1CC[C@H](CNS(=O)(=O)c2cccc3ccccc23)CC1`, the melting point lay within 199 to 200 °C.
The compound `CCN(CC)CCNc1ncc2cc(-c3c(Cl)cccc3Cl)c(NC(=O)NC(C)(C)C)nc2n1` registered a melting point of 94.5 to 96.5 °C.
The compound `C[C@@H](Nc1c(NCc2ccc(Cl)cc2Cl)c(=O)c1=O)C(C)(C)C` showed a melting point of 235 to 239 °C.
In turn, `O=[N+]([O-])c1ccc2c(c1)OC(c1ccccc1)O2` (centres undefined) displayed a melting point of 84 to 85 °C.
`C[Si](C)(C)CCOC(=O)c1ccc(F)cc1N`: the melting point was 43 to 44 °C.
`O=C(Nc1ccc(Cl)c(Cl)c1)c1ccccc1SSc1ccccc1C(=O)Nc1ccc(Cl)c(Cl)c1` came in with a melting point of 230 to 233 °C.
The figure for `O=c1[nH]cc2n1-c1ccc(Cl)cc1C(c1ccccc1F)=NC2` is 247 to 250 °C; for `Cc1cc(Cl)cc(C(=O)NC(C)(C#N)C2CC2)c1NC(=O)c1cc(C(F)(F)F)nn1-c1ncccc1Cl` (centres undefined) it is 226 to 228 °C.
Compound `CCCCCCCCCCCCCCCCNc1cc(O)ccc1OCC` had a melting point of 88 to 90 °C.
The figure for `O=C(C1CC1)N1CCC(C2CCc3ccc(O)cc32)CC1` (centres undefined) is 75 to 82 °C; for `O=C(O)c1ccc(Cl)cc1C(=O)NCCCCc1cccnc1` it is 152 to 154 °C.
Compound `CCn1c2ccc(C(=O)CCCCl)cc2c2cc(C(=O)CCCCl)ccc21` returned a melting point of 106 to 108 °C.
In turn, `CCN(CC)C(=O)Oc1cc(-c2ccccc2)c2ccccc2n1` showed a melting point of 64 °C.
For `COc1ccc(Cl)cc1C(=O)NCCc1ccc(CCC(=O)O)cc1` the value was 118 to 120 °C.
The compound `Nc1cccc(NC(=O)Nc2ccc(N(CCCl)CCCl)cc2)c1` gave a melting point of 182 to 183 °C.
For the compound `CCCCCc1cnc(-c2ccc(C#N)cc2)nc1`, the melting point is 69.4 to 70.8 °C.
The compound `COc1cc(Cl)c([N+](=O)[O-])cc1OC` registered a melting point of 103 to 105 °C.
In turn, `CCCCC[C@H]1CC[C@H](c2ccc(-c3nc(N)nc(N)n3)cc2)CC1` gave a melting point above 250 °C.
For `CC(C)(Nc1ccccc1N)C(=O)O` the value was 130 to 132 °C; for `O=C(O)c1cc(-c2ncnc(C(F)F)c2Cl)c(F)cc1Cl`, 217 to 219 °C.
Compound `NCC1COc2cc(F)cc(-c3cccc(Cl)c3)c2N1` (centres undefined) had a melting point of 76 °C.
Take `Cc1cc(C)n(Cc2ccc(Cl)cc2Cl)c1/C=C/C(=O)O`: the melting point lay in the range of 193 to 194 °C.
The compound `CCCCCCCCOc1ccc(-c2ncc(O)cn2)c(F)c1F` yielded a melting point of 84 to 85 °C.
In turn, `O=C(OCC1CCCCCCCCCC1)n1c(-c2cscn2)nc2ccccc21` came in with a melting point of 86 to 87 °C.
With `CC1=C(O)C(=O)C(C)(C(O)Cc2ccccc2)O1` (centres undefined), the melting point lay in the range of 158 to 159 °C.
On to `CC(C)(N)c1ccc(-c2nc(Nc3cc(F)cc(F)c3)ncc2C#N)cc1`, for which the melting point was 209 °C.
`CN1CCC(OC(c2ccccc2)c2nc3cc(Cl)c(Cl)cc3[nH]2)CC1` (centres undefined): the melting point is 221 °C.
For `CCCCCC1(C=Cc2ccc(C(=O)O)cc2)CC2=C(C1)C(C)(C)CCC2(C)C` the value was 121 to 123 °C; for `CC(C)(Oc1ccc(OCc2nc(-c3ccc(C(F)(F)F)cc3)no2)cc1)C(=O)O`, 164 °C; for `COC(=O)N(C)CCc1ccc([N+](=O)[O-])c(CS(=O)(=O)c2ccccc2)c1`, 42 °C.
For the compound `CC(=O)OCC(=O)C1(O)C(C)CC2C3CCC4=CC(=O)CCC4(C)C3C(=O)CC21C` (centres undefined), the melting point was 214 to 219 °C.
`COc1ccc2c(c1)c(Cc1cc(=O)n(-c3ccc(Cl)c(Cl)c3)[nH]1)c(C)n2C(=O)c1ccc(Cl)cc1` showed a melting point of 123 to 125 °C.
`COC(=O)CCCC(=O)c1cc2c(c(S(N)(=O)=O)c1)OCC2` showed a melting point of 135 to 136 °C.
`Nc1ccncc1C(=NO)c1ccccc1F` registered a melting point of 212 to 214 °C.
For `OCc1cc(C(F)(F)F)ccc1I` the value was 81 to 82 °C; for `CCCc1nnc2c(=O)n(C)c3ccc(C(F)(F)F)cc3n12`, 257 to 258 °C; for `CC(C)(C)OC(=O)NCCOc1ccc(OCC2(C)OCCO2)cc1`, 80 to 82 °C.
Take `COc1ccc(-c2nc(-c3ccccc3)sc2-c2ccc(OC)cc2)cc1`: the melting point was in the range of 117 to 118 °C.
With `CC(Sc1nc(N)cc(Cl)n1)c1ccc2ccccc2c1` (centres undefined), the melting point lay in the range of 55 to 58 °C.
